{"source": "patent US20060178408A1", "about": "“Nicotinamide derivatives useful as pde4 inhibitors” (priority 2003, published 2006)", "test_system": "TNFα release from human peripheral blood mononuclear cells", "test": "Inhibition of LPS-stimulated TNFα release from human peripheral blood mononuclear cells (TNFα screen, ELISA)", "assay_type": "cell-based", "settings": "LPS-stimulated human PBMC, 18 hours incubation, TNFα in supernatant by ELISA", "protocol": "Venous blood is collected from healthy volunteers and the mononuclear cells purified by centrifugation through Histopaque (Ficoll) cushions. TNFα production from these cells is stimulated by addition of lipopolysaccharide. After 18 hours incubation in the presence of LPS, the cell supernatant is removed and the concentration of TNFα in the supernatant determined by ELISA.", "data": [{"smiles": "O=C(N[C@H]1CC[C@@H](NC(=O)c2cc(Cl)cc(Cl)c2O)CC1)c1cc(F)cnc1OC1CCSCC1", "note": "[Example 26, Syn-N-[4-(3,5-Dichloro-2-hydroxy-benzoylamino)-cyclohexyl]-5-fluoro-2-(tetrahydro-thiopyran-4-yloxy)-nicotinamide]", "values": [{"measurement": "IC50", "result": 14, "unit": "nM"}]}]}
